What follows are compounds tested on HCC cell lines (HLE, HLF, and PLC/PRF5) (assay: Cell proliferation assay, three HCC cell lines). Conditions: Homo sapiens, PLC-PRF-5, single agent, range over HLE, 96 hours, read-out: IC50 (concentration that inhibits proliferation of 50% cells).
Assay type: cell-based
Description: HCC cell lines (3×10^5 cells) were suspended in a 10 mL culture medium and seeded onto 96-well black plates at 100 μL per well (Corning Incorporated, Corning, NY, USA). The next day, SSI-4, cabozantinib, and/or lenvatinib were added in concentrations ranging from 120 μM to 0.1 nM and incubated with cells for 96 hours. After incubation times, the media was discarded, and cells were washed with 100 μL PBS, dried, and placed at −80° C. for at least 30 minutes. Next, a CyQUANT® Cell Proliferation Assay (Thermo Fisher, Waltham, MA) was used for quantifying cells and for assessing cell proliferation and cytotoxicity following manufacturer protocol. For 3D cell culture, the cell viability was analyzed using CellTiter-Glo® 3D Cell Viability Assay (Promega, Madison, WI), and relative luminescence units (RLU) were measured. Based, on the fluorescence or luminescence values, the percentage of cell proliferation inhibition and half-maximal inhibitory concentration (IC50) was determined using the GraphPad Prism (Dotmatics, San Diego, CA). The resulting combination index (CI) data based on the median effect principle proposed by Chou and Talalay was generated using CalcuSyn Software Version 2.0 (Biosoft). At least 3 independent experiments were performed.
Three HCC cell lines (HLE, HLF, and PLC/PRF5) were tested and the concentration that inhibits proliferation of 50% cells (IC50) was determined. […]

Row | IC50 | Compound
1 | 0.001 to 0.019 µM | CNC(=O)c1ccnc(NC(=O)N2CCC(Oc3ccccc3Cl)CC2)c1 [SSI-4, 2-{[4-(2-Chlorophenoxy)piperidine-1-carbonyl]amino}-N-methylpyridine-4-carboxamide]
2 | 19 to 72 µM | COc1cc2nccc(Oc3ccc(NC(=O)C4(C(=O)Nc5ccc(F)cc5)CC4)cc3)c2cc1OC [cabozantinib]
3 | 11 to 24 µM | COc1cc2nccc(Oc3ccc(NC(=O)NC4CC4)c(Cl)c3)c2cc1C(N)=O [lenvatinib]

— patent US20240423969A1, “SYNERGISTIC DRUG COMBINATIONS TO TREAT CANCER” (Mayo Foundation for Medical Education and Research, priority 2023, published 2024)
